Results published in paper PMC9936582, “Sulfamate Acetamides as Self-Immolative Electrophiles for Covalent Ligand-Directed Release Chemistry” (Journal of the American Chemical Society, 2023).

System: Mino cells
Experiment: Competitive pull-down proteomics with ibrutinib alkyne probe in Mino cells
Format: cell-based, human
Settings: 1 µM compound 1 h
Method: (10 μM). This was followed by a reaction with biotin-azide using CuAAC, enrichment of the labeled proteins, and their quantification by tryptic digestion and LC/MS/MS analysis.
The samples were then precipitated with methanol: chloroform (1 mL of methanol, 250 μL of chloroform, and 750 μL of water), washed with 1 mL of methanol, and air-dried. The samples were solubilized and bound to streptavidin agarose beads in PBS for 3 h at 25 °C. The beads were washed, centrifuged, and resuspended in Tris 50 mM pH 8 and transferred to a clean Eppendorf tube. After this, the bound proteins were eluted by boiling with 5% SDS then reduced with DTT, alkylated with iodoacetamide, and digested with trypsin. The samples were run on LC/MS/MS. The detailed procedure is available in the Supplementary Information. The mass spectrometry proteomics data have been deposited to the ProteomeXchange Consortium via the PRIDE[67] partner repository with the dataset identifiers PXD038301 and PXD038375.
400 µL of 0.1% IGEPAL/PBS were added, and the beads were washed 3 times with 0.1% IGEPAL/PBS, 3 times PBS and 3 times water. The peptides were eluted by incubation with 200 µL of 50% acetonitrile + 0.1% TFA for 5 min, followed by two more portions of 100 µL of 50% acetonitrile + 0.1% TFA. The samples were dried by speedvac, and further purified using Oasis desalting columns (Waters), after which they were dried and run on the instrument.
Pull-down samples preparation […]
incubation with 10 μM “probe 4” for another hour. The samples were prepared in quadruplicates. The cells were washed with cold PBS, from the flasks and frozen. Then, each sample was lysed in 200 μL of […]
The protein in the supernatant was quantified using BCA. For each sample, 250 μL of 1.7 mg/mL was prepared. At this point, 5 μL of 5 mM biotin azide and 9 μL of 100 mM CuSO4/THPTA complex were added. The click reaction was initiated by the addition of 7.5 μL of 150 mM sodium ascorbate, and the samples are incubated at room temperature for 1 h. The samples were then precipitated with methanol/chloroform (1 mL methanol, 250 μL chloroform, 750 μL water), washed with 1 mL of methanol, and air-dried. […]
and heated to 95 °C for 5 min. The samples were then diluted to 1.5 mL with PBS, and 50 μL of streptavidin agarose beads, prewashed with 0.2% SDS in PBS, was added, followed by 3 h incubation at room temperature. Following the incubation, the beads were centrifuged at 2000g for 2 min and washed four times with the following buffers (4 mL in each wash): 2% SDS; 0.1% sodium deoxycholate, 1% Triton X-100, 0.5 M NaCl, 1 mM EDTA, 50 mM HEPES pH = 7.5; 0.25 M NaCl, 0.5% IGEPAL, 0.5% sodium deoxycholate, 1 mM EDTA, 10 mM Tris pH = 8.1; 50 mM Tris pH = 7.4, 50 mM NaCl. […]
with heating to 95 °C for 6 min and occasional vortexing. Finally, the beads were spun down (2 min 2000g) and 80 μL of supernatant was removed to separate tubes. […]
had cooled, 4 μL of iodoacetamide (0.2 M) were added, and the samples were incubated in the dark for 40 min at room temperature. […]
samples were diluted 6-fold with 90% methanol + 50 mM ammonium bicarbonate. The samples were then […]
loaded on S-trap micro columns (Protify), and the columns were washed three times with 150 μL of 90% methanol + 50 mM ammonium bicarbonate. Then, 20 μL of 0.05 μg/μL of trypsin in 50 mM ammonium bicarbonate was added to the columns and the samples were incubated at 47 °C for 90 min. Then, 40 μL of 50 mM ammonium bicarbonate was added, followed by centrifugation and addition of 1 μL of 0.5 μg/μL trypsin to the eluate, which was incubated at 37 °C overnight. The column itself was then eluted using 40 μL of 0.2% formic acid and 40 μL 0.2% formic acid in 50% acetonitrile into a separate tube, which was kept at 4 °C. The two eluates were then combined and evaporated. The samples were further desalted using […]

In the case of `Nc1ncnc2c1c(-c1ccc(Oc3ccccc3)cc1)nn2[C@@H]1CCCN(C(=O)COS(=O)(=O)NCc2ccccc2)C1` [3d], the “Log2(Fold Change)” value (4F2_HUMAN) is reported as -0.3468, the “Log2(Fold Change)” value (AATM_HUMAN) is reported as 1.62 and the “Log2(Fold Change)” value (ACSF3_HUMAN) is reported as 0.1421. The “Log2(Fold Change)” value (AHNK_HUMAN) was 2.176, the “Log2(Fold Change)” value (ALG1_HUMAN) was -0.2223 and the “Log2(Fold Change)” value (ANXA1_HUMAN) was 2.107. The “Log2(Fold Change)” value (APEX1_HUMAN) was 0.5549, the “Log2(Fold Change)” value (ARP3_HUMAN;ARP3B_HUMAN;ARP3C_HUMAN) was 0.3683 and the “Log2(Fold Change)” value (AT1A1_HUMAN;AT1A2_HUMAN;AT1A4_HUMAN;ATP4A_HUMAN;AT12A_HUMAN) was 0.9797. For the same compound, the “Log2(Fold Change)” value (ATP5H_HUMAN) was 0.3377, the “Log2(Fold Change)” value (ATPK_HUMAN) was 0.2949 and the “Log2(Fold Change)” value (ATPO_HUMAN) was -0.283. For the same compound, the “Log2(Fold Change)” value (ATX10_HUMAN) was 0.3503, the “Log2(Fold Change)” value (BST2_HUMAN) was 0.9798 and the “Log2(Fold Change)” value (BZW1_HUMAN) was 0.5267. The “Log2(Fold Change)” value (C1TM_HUMAN) was -0.1466, the “Log2(Fold Change)” value (CALL5_HUMAN) was -0.1469 and the “Log2(Fold Change)” value (CD20_HUMAN) was -0.02247. For the same compound, the “Log2(Fold Change)” value (CD38_HUMAN) was 0.01573, the “Log2(Fold Change)” value (CLCA_HUMAN) was -0.02966 and the “Log2(Fold Change)” value (CLH1_HUMAN;CLH2_HUMAN) was 2.15. The “Log2(Fold Change)” value (COX2_HUMAN) was -0.2094, the “Log2(Fold Change)” value (CRERF_HUMAN) was -0.7334 and the “Log2(Fold Change)” value (DD19B_HUMAN;DD19A_HUMAN) was -0.05233. For the same compound, the “Log2(Fold Change)” value (DDX3X_HUMAN;DDX3Y_HUMAN;DDX4_HUMAN) was 1.382, the “Log2(Fold Change)” value (DNJC7_HUMAN) was 0.6525 and the “Log2(Fold Change)” value (DSC1_HUMAN) was -0.7969. For the same compound, the “Log2(Fold Change)” value (EF1B_HUMAN) was -0.6176, the “Log2(Fold Change)” value (EPIPL_HUMAN) was 0.9511 and the “Log2(Fold Change)” value (FPPS_HUMAN) was -0.6242. For the same compound, the “Log2(Fold Change)” value (GCR_HUMAN) was 0.4122, the “Log2(Fold Change)” value (GLYM_HUMAN;GLYC_HUMAN) was 1.206 and the “Log2(Fold Change)” value (GSDMA_HUMAN) was 0.09253. For the same compound, the “Log2(Fold Change)” value (HMCS1_HUMAN) was 0.6183, the “Log2(Fold Change)” value (HXK2_HUMAN;HXK3_HUMAN) was 0.4444 and the “Log2(Fold Change)” value (IF4A1_HUMAN) was 0.3836. For the same compound, the “Log2(Fold Change)” value (IF4A3_HUMAN) was 0.3127, the “Log2(Fold Change)” value (IF4H_HUMAN) was 0.66 and the “Log2(Fold Change)” value (IGLL5_HUMAN;IGL1_HUMAN;IGLC1_HUMAN) was -2.924. The “Log2(Fold Change)” value (LAPM5_HUMAN) was 0.7164, the “Log2(Fold Change)” value (LAT1_HUMAN) was -0.2987 and the “Log2(Fold Change)” value (LMNA_HUMAN) was 1.21. For the same compound, the “Log2(Fold Change)” value (MATR3_HUMAN) was 1.3535, the “Log2(Fold Change)” value (MBB1A_HUMAN) was 0.0529 and the “Log2(Fold Change)” value (MCCA_HUMAN) was -0.3018. For the same compound, the “Log2(Fold Change)” value (MIC19_HUMAN) was 0.1905, the “Log2(Fold Change)” value (MP2K7_HUMAN) was 1.5282 and the “Log2(Fold Change)” value (NCEH1_HUMAN) was 1.226. For the same compound, the “Log2(Fold Change)” value (NT5D1_HUMAN) was 2.611, the “Log2(Fold Change)” value (NUCL_HUMAN) was 0.5701 and the “Log2(Fold Change)” value (OTUB1_HUMAN) was 0.2048. For the same compound, the “Log2(Fold Change)” value (P121C_HUMAN;P121A_HUMAN) was 0.4168, the “Log2(Fold Change)” value (PARK7_HUMAN) was 1.57 and the “Log2(Fold Change)” value (PCKGM_HUMAN) was 0.1766. For the same compound, the “Log2(Fold Change)” value (PEBP1_HUMAN) was -0.8247, the “Log2(Fold Change)” value (PEPL_HUMAN) was 0.8796 and the “Log2(Fold Change)” value (PFKAL_HUMAN) was -0.4948. The “Log2(Fold Change)” value (PGK1_HUMAN;PGK2_HUMAN) was 0.5127, the “Log2(Fold Change)” value (PIP_HUMAN) was 0.8481 and the “Log2(Fold Change)” value (PLAK_HUMAN;CTNB1_HUMAN) was -0.4311. The “Log2(Fold Change)” value (POF1B_HUMAN) was 0.5955, the “Log2(Fold Change)” value (PSA3_HUMAN) was 0.515 and the “Log2(Fold Change)” value (PSB8_HUMAN) was 0.8443. For the same compound, the “Log2(Fold Change)” value (RAB1A_HUMAN;RAB1B_HUMAN;RAB1C_HUMAN) was 0.5794, the “Log2(Fold Change)” value (RANG_HUMAN;IPKB_HUMAN) was -0.3375 and the “Log2(Fold Change)” value (RAP1B_HUMAN;RAP1A_HUMAN;RP1BL_HUMAN;RAB3D_HUMAN) was 0.1236. The “Log2(Fold Change)” value (RFTN1_HUMAN) was 0.055, the “Log2(Fold Change)” value (RL13A_HUMAN;R13P3_HUMAN) was 0.2889 and the “Log2(Fold Change)” value (RL18_HUMAN) was 0.278. The “Log2(Fold Change)” value (RLA1_HUMAN) was 1.604, the “Log2(Fold Change)” value (RN3P2_HUMAN) was -0.7545 and the “Log2(Fold Change)” value (RS28_HUMAN) was 1.706. For the same compound, the “Log2(Fold Change)” value (RTN4_HUMAN) was -0.003108, the “Log2(Fold Change)” value (RUVB2_HUMAN) was 0.8199 and the “Log2(Fold Change)” value (S38A1_HUMAN) was 0.5709. The “Log2(Fold Change)” value (S61A1_HUMAN;S61A2_HUMAN) was 0.03923, the “Log2(Fold Change)” value (SAE2_HUMAN) was 0.8525 and the “Log2(Fold Change)” value (SATT_HUMAN) was -0.2942. For the same compound, the “Log2(Fold Change)” value (SCRB1_HUMAN) was 0.8748, the “Log2(Fold Change)” value (SIAT1_HUMAN) was 0.1522 and the “Log2(Fold Change)” value (SO4A1_HUMAN) was 1.533. For the same compound, the “Log2(Fold Change)” value (SPB4_HUMAN) was 2.369, the “Log2(Fold Change)” value (SPB12_HUMAN) was -0.3346 and the “Log2(Fold Change)” value (SSDH_HUMAN) was 1.965. The “Log2(Fold Change)” value (SUCB1_HUMAN) was 0.8691, the “Log2(Fold Change)” value (TAP1_HUMAN) was -1.533 and the “Log2(Fold Change)” value (TAP2_HUMAN;ABCB8_HUMAN;ABCBA_HUMAN) was 0.8469. For the same compound, the “Log2(Fold Change)” value (TBB2B_HUMAN;TBB2A_HUMAN) was -0.1459, the “Log2(Fold Change)” value (TSN_HUMAN) was -0.1715 and the “Log2(Fold Change)” value (TX264_HUMAN) was 0.3926. The “Log2(Fold Change)” value (UB2V2_HUMAN;UB2V1_HUMAN) was 1.306, the “Log2(Fold Change)” value (UBP5_HUMAN) was -0.01896 and the “Log2(Fold Change)” value (UBP14_HUMAN) was 1.116. For the same compound, the “Log2(Fold Change)” value (URP2_HUMAN) was 0.2486, the “Log2(Fold Change)” value (USMG5_HUMAN) was 0.3682 and the “Log2(Fold Change)” value (VDAC1_HUMAN) was 0.3637. The “Log2(Fold Change)” value (VEZA_HUMAN) was -0.126, the “Log2(Fold Change)” value (XPO2_HUMAN) was 0.1341 and the “Log2(Fold Change)” value (XPO5_HUMAN) was 0.1456. For the same compound, the “Log2(Fold Change)” value (ZDHC8_HUMAN) was -1.527.
